Reference: patent publication US7799954B2, “Dicarbonyl derivatives and methods of use” (Abraxis BioScience, LLC, priority 2006, dated 2010)

tested on: MX-1 (human breast carcinoma) cells; assay: in vitro growth inhibition, Promega CellTiter Blue Cell Viability Assay; type: cell-based; settings: MX1, 72 h
Experimental: The cytotoxicity assay was quantitated using the Promega CellTiter Blue Cell Viability Assay. Briefly, cells (5000 cells/well) were plated onto 96-well microtiter plates in RPMI 1640 medium supplemented with 10% FBS and incubated at […] in a humidified 5% CO2 atmosphere. After 24 h, cells were exposed to various concentrations of compound in DMSO and cultured for another 72 h. 100 ul of media were removed and 20 ul of Promega CellTiter Blue reagent were added to each well and shaken to mix. After 4 hours of incubation at 37° C. in a humidified 5% CO2 atmosphere, the plates were read at 544 ex/620 em. The fluorescence produced is proportional to the number of viable cells. After plotting fluorescence produced against drug concentration, the IC50 was calculated as the […] of the resulting non-linear regression.

Going from `CN(C)C1=CC(=O)C(C2C(=O)C=C(N(C)C)CC2(C)C)C(C)(C)C1` (centres unmarked) [Compound 1] to `CC1(C)C=CC(=O)C(C2CC(C)(C)C=CC2=O)C1` (centres unmarked) [Compound 2], the IC50 falls from > 1000 µM to 56.8 µM. The second is the more potent here.

First: O=C1CCC(c2ccccc2)CC1C1CC(c2ccccc2)CCC1=O (centres unmarked) [Compound 3]
Second: O=C1OC(c2ccccc2)CC1C1CC(c2ccccc2)OC1=O (centres unmarked) [Compound 9]
The IC50 of the first is 16-fold lower: 29.7 µM for the first, 472 µM for the second. The first is the more potent here.

`CCOC1=CC(=O)C(C2CCC(OCC)=CC2=O)CC1` (centres unmarked) [Compound 4] and `COc1ccc2c(c1)CCC(C1CCc3cc(OC)ccc3C1=O)C2=O` (centres unmarked) [Compound 5] cannot be ordered by IC50: > 1000 µM for the first, > 1000 µM for the second.

`O=C1c2ccccc2CCC1C1CCc2ccccc2C1=O` (centres unmarked) [Compound 6] and `CC(C(=O)c1ccccc1)C(C)C(=O)c1ccccc1` (centres unmarked) [Compound 12] cannot be ordered by IC50: > 1000 µM for the first, > 1000 µM for the second.

Compared with `C/C=C/C(=O)C(C)C(C)C(=O)/C=C/C` (centres unmarked) [Compound 7], `C/C=C/C(=O)C(C)C1CCC=CC1=O` (centres unmarked) [Compound 20] is 5.1-fold lower in IC50: 2.63 µM for the first, 0.52 µM for the second. The second is the more potent here.

First: O=C(CCC(=O)C1=CCCCC1)C1=CCCCC1 [Compound 10]
Second: O=C(/C=C/c1ccccc1)CCC(=O)/C=C/c1ccccc1 [Compound 13]
The IC50 of the first is higher: > 1000 µM for the first, 37.9 µM for the second. The second is the more potent here.

`CC(C)=CC(=O)CCC(=O)C=C(C)C` [Compound 11] and `CCCC/C=C/C(=O)CCC(=O)/C=C/CCCC` [Compound 15] are within 1.5-fold of each other in IC50: 10.3 µM for the first, 7.99 µM for the second.

Going from `O=C(/C=C/c1cccc(Cl)c1)CCC(=O)/C=C/c1cccc(Cl)c1` [Compound 14] to `O=C(O)/C=C/C(=O)/C=C/c1ccccc1` [Compound 28], the IC50 falls from 55.7 µM to 3.96 µM (14-fold). The second is the more potent here.

First: O=C(/C=C/c1ccccc1)CC1CCC=CC1=O (centres unmarked) [Compound 21]
Second: O=C(/C=C/c1ccc2c(c1)OCO2)CC1CCC=CC1=O (centres unmarked) [Compound 24]
The IC50 of the first is 1.7-fold lower: 0.42 µM for the first, 0.7 µM for the second. The first is the more potent here.

Compared with `COc1ccc(/C=C/C(=O)CC2CCC=CC2=O)cc1OC` (centres unmarked) [Compound 23], `COc1ccc(/C=C/C(=O)/C=C/C(=O)O)cc1OC` [Compound 29] is 170-fold higher in IC50: 0.17 µM for the first, 29 µM for the second. The first is the more potent here.

Going from `COc1cc(/C=C/C(=O)/C=C/C(=O)O)cc(OC)c1OC` [Compound 30] to `COc1ccc(/C=C/C(=O)/C=C/C(=O)N2CCN(c3ccccc3)CC2)cc1OC` [Compound 38], the IC50 falls from 34.2 µM to 0.25 µM (140-fold). The second is the more potent here.

In the case of `COc1ccc(/C=C/C(=O)/C=C/C(=O)N2CCN(c3ccncc3)CC2)cc1OC` [Compound 37], the IC50 is reported as 0.12 µM.

same assay, conditions: MX1, MX-1 cells, 72 h exposure, CellTiter Blue fluorescence 544 ex/620 em, read-out: IC50

Compared with `CC(C)=C/C=C/C(=O)CCC(=O)/C=C/C=C(C)C` [Compound 16], `COc1ccc(/C=C/C(=O)CCC(=O)/C=C/c2ccc(OC)c(OC)c2)cc1OC` [Compound 17] is 4.5-fold higher in IC50: 16.2 µM for the first, 73.1 µM for the second. The first is the more potent here.

Compared with `O=C1c2cc(F)ccc2OCC1C1COc2ccc(F)cc2C1=O` (centres unmarked) [Compound 18], `O=C(/C=C/c1ccc(O)cc1)CC1CCC=CC1=O` (centres unmarked) [Compound 25] is lower in IC50: > 1000 µM for the first, 0.16 µM for the second. The second is the more potent here.

First: CC(C)=CC(=O)CC1CCC=CC1=O (centres unmarked) [Compound 19]
Second: O=C(/C=C/c1cccc(C(F)(F)F)c1)CC1CCC=CC1=O (centres unmarked) [Compound 26]
The IC50 of the first is 2.5-fold lower: 1.04 µM for the first, 2.59 µM for the second. The first is the more potent here.

`C/C=C/C(=O)C(C)CC(=O)/C=C/c1ccccc1` (centres unmarked) [Compound 22] and `CCOC(=O)/C=C/C(=O)/C=C/c1ccccc1` [Compound 31] are within 1.5-fold of each other in IC50: 2.07 µM for the first, 2.17 µM for the second.

Compared with `CCOC(=O)CCC(=O)/C=C/c1ccccc1` [Compound 27], `CCCN(C)C(=O)/C=C/C(=O)/C=C/c1ccccc1` [Compound 32] is 200-fold lower in IC50: 77.5 µM for the first, 0.39 µM for the second. The second is the more potent here.

Compared with `O=C(/C=C/C(=O)Nc1ccccc1)/C=C/c1ccccc1` [Compound 33], `COc1ccc(/C=C/C(=O)/C=C/C(=O)Nc2ccccc2)cc1OC` [Compound 35] is 3.7-fold lower in IC50: 3.25 µM for the first, 0.89 µM for the second.

Going from `CCCN(C)C(=O)/C=C/C(=O)/C=C/c1ccc(OC)c(OC)c1` [Compound 34] to `COc1ccc(/C=C/C(=O)/C=C/C(=O)N2CCN(C)CC2)cc1OC` [Compound 36], the IC50 falls from 0.28 µM to 0.17 µM (1.6-fold).

Going from `COc1cc(/C=C/C(=O)/C=C/C(=O)N2CCN(C)CC2)cc(OC)c1OC` [Compound 39] to `CON=C(/C=C/C(=O)N1CCN(C)CC1)/C=C/c1cc(OC)c(OC)c(OC)c1` [Compound 49], the IC50 rises from 0.8 µM to > 1000 µM. The first is the more potent here.

Compared with `COc1cc(/C=C/C(=O)/C=C/C(=O)N2CCN(c3ccncc3)CC2)cc(OC)c1OC` [Compound 40], `CON=C(/C=C/C(=O)N1CCN(C)CC1)/C=C/c1ccc(OC)c(OC)c1` [Compound 46] is 1000-fold higher in IC50: 0.48 µM for the first, 482 µM for the second. The first is the more potent here.

`COC(=O)/C=C/C(=O)Nc1ccc(F)cc1` [Compound 41] and `CCCN(C)C(=O)/C=C/C(/C=C/c1ccccc1)=N\OC` [Compound 43] are within 1.5-fold of each other in IC50: 121 µM for the first, 171 µM for the second.

Going from `CO/N=C(\C=C\c1ccc(OC)c(OC)c1)CC1CCC=C/C1=N\OC` (centres unmarked) [Compound 42] to `COc1ccc(/C=C/C(/C=C/C(=O)N2CCN(C)CC2)=NOc2ccccc2)cc1OC` [Compound 47], the IC50 falls from 128 µM to 8.73 µM (15-fold). The second is the more potent here.

Going from `COc1ccc(/C=C/C(/C=C/C(=O)N2CCN(C)CC2)=NO)cc1OC` [Compound 45] to `COc1ccc(/C=C/C(/C=C/C(=O)N2CCN(C)CC2)=NOCc2ccccc2)cc1OC` [Compound 48], the IC50 falls from 371 µM to 23.4 µM (16-fold). The second is the more potent here.

Going from `O=C(O)c1cc(/C=C/c2ccccc2)no1` [Compound 50] to `CCOC(=O)c1cc(/C=C/c2ccccc2)no1` [Compound 51], the IC50 falls from > 1000 µM to 533 µM. The second is the more potent here.

For `CCCN(C)C(=O)c1cc(/C=C/c2ccccc2)no1` [Compound 52], the IC50 was 195 µM.
